Assays:
Calu6 cells = test: Proliferation assay (CyQuant Direct), Calu6 cells; type: cell-based; settings: Homo sapiens, Calu-6; 72 hour incubation; read-out: GI50 antiproliferative effect on Calu6 cells
Protocol: (§1) Experimental Procedure of Proliferation Assay:
(§2) A375 and Calu6 cells are grown in RPMI1640, 10% FBS, in a humidified atmosphere of 5% CO2 at 37° C. Cells are seeded into flat bottom 96 well microtiter plates and incubated in a humidified atmosphere of 5% CO2 at 37° C. for 24 hours. Compounds are added, at the same time, a “time zero” untreated cell plate is stained and measured after 1 h. Compounds are serially diluted 5-fold from the highest test concentration (10 μM) and assayed over 8 concentrations in duplicates. The concentration of the solvent DMSO in the final culture is 0.1%. After a 72 hour incubation period, cells are stained with fluorescent nuclear dye to allow visualization of nuclei (CyQuant Direct Cell Proliferation Assay, Invitrogen Cat. No. C35012). Total fluorescence intensity of each well is measured using an Envision platform with excitation at 480 nm, emission detection at 535 nm. The assay signal correlates to the number of nuclei and thus, by definition, to the number of cells in the culture well (“cell count”).
(§3) The cell proliferation assay output for control cells after 72 hours of incubation, corresponding to 100% cell proliferation, is taken as the reference cell count for all subsequent calculations. Relative cell proliferation in compound-treated cultures (signal percent of control, “POC”) is calculated according to the following formula: POC(t=72 h)=100*fluorescence(compound wells)/fluorescence(control wells)
(§4) In addition, for each compound-treated culture, the cell count after incubation for 72 hours (POC(t=72h)) is related to the cell count at the start of treatment (POC(t=0 h)): POC(t=0 h)=100*fluorescence at t=0(control wells)/fluorescence at t=72 h(control wells)
(§5) The concentration-response curves were calculated using the dose-response package (drc versio 2.0-1 http://cran.rproject.org/web/packages/drc/index.html) from R (version 2.10.1 http://www.r-project.org/). […]
(§6) Relative cell growth inhibition (CGI %) in compound-treated cultures is calculated according to the following formula: […]

A375 cells = test: Proliferation assay (CyQuant Direct), A375 cells; type: cell-based; settings: Homo sapiens, A-375; 72 hour incubation; read-out: GI50 antiproliferative effect on A375 cells
Protocol: as §1, §2, §3, §4, §5, §6

Row | SMILES | GI50 (Calu6 cells) [nM] | GI50 (A375 cells) [nM]
1 | CCNC(=O)C#Cc1ccc2c(c1)NC(=O)/C2=C(\Nc1ccc(CN(C)C)cc1)c1ccccc1 [Compound 6, 3-[3-[[4-(dimethylaminomethyl)anilino]-phenylmethylidene]-2-oxo-1H-indol-6-yl]-N-ethylprop-2-ynamide] | 7.66 | 2.7
2 | CCNC(=O)C#Cc1ccc2c(c1)NC(=O)/C2=C(\Nc1ccc(CNC)cc1)c1ccccc1 [Compound 26, 3-[3-[[4-(methylaminomethyl)anilino]-phenylmethylidene]-2-oxo-1H-indol-6-yl]-N-ethylprop-2-ynamide] | 7.82 | 3.37
3 | CCNC(=O)C#Cc1ccc2c(c1)NC(=O)/C2=C(\Nc1ccc(C[N+](C)(C)[O-])cc1)c1ccccc1 [Compound 27, 3-[3-[[4-(dimethyloxidoaminomethyl)anilino]-phenylmethylidene]-2-oxo-1H-indol-6-yl]-N-ethylprop-2-ynamide] | 11.3 | 17.3

From US8937095B2, “Anticancer compounds” (Boehringer Ingelheim International GmbH, priority 2012, dated 2015)
